The values below are quoted from earlier work in patent US20090238867A1, “Nanoparticulate Anidulafungin Compositions and Methods for Making the Same” (priority 2007, published 2009).

Read-outs that look alike come from different tables or passages of the source. Numbered stars: 1 amine (or outer) side, 2 acyl side, 3 side chain; on linkers, the order of the positions; unused ones are H or OH. Bridge positions count the residues as written; N and C are the ends. Square brackets hold non-standard residues; d marks the D form. Peptide text beside a SMILES is read from it. * marks the point of attachment. ξ: configuration not given here. pTerphenylCO(4''-OnC5H11) = CCCCCOc1ccc(-c2ccc(-c3ccc(C(=O)*)cc3)cc2)cc1; Orn(4R-OH,5R-OH) = O=C([C@H](C[C@@H](O)[C@@H](O)N[*:3])N[*:1])[*:2]; hTyr(3S-OH,4S-OH) = N[C@H](C(=O)O)[C@H](O)[C@@H](O)c1ccc(O)cc1; Pro(3S-OH,4S-Me) = C[C@H]1CN[C@H](C(=O)O)[C@H]1O; Hyp = O=C(O)[C@@H]1C[C@@H](O)CN1; ξThr(3R) = C[C@@H](O)C(N)C(=O)O

For one data set, the system named is glucan synthase. Particulars: enzyme present in fungal, not mammalian cells.
The subject of data set [1] is Candida albicans.
Data set [2] deals with Candida albicans. Particulars: parenteral; immunocompetent and immunosuppressed mice, disseminated infection.
Data set [3] relates to Candida albicans. The settings on record: parenteral; immunocompetent and immunosuppressed rabbits, disseminated infection.
In data set [4] the test system is fluconazole-resistant C. albicans. The settings on record: immunosuppressed rabbits.
The conditions of data set [5]: IV.
Data set [6] has as its system cytochrome P450 (CYP450) isoenzymes.

`CCCCCOc1ccc(-c2ccc(-c3ccc(C(=O)N[C@H]4C[C@@H](O)[C@@H](O)NC(=O)[C@@H]5[C@@H](O)[C@@H](C)CN5C(=O)[C@H]([C@@H](C)O)NC(=O)[C@H]([C@H](O)[C@@H](O)c5ccc(O)cc5)NC(=O)[C@@H]5C[C@@H](O)CN5C(=O)C([C@@H](C)O)NC4=O)cc3)cc2)cc1` (stereo partly drawn) [anidulafungin, 1-[(4R,5R)-4,5-Dihydroxy-N^2-[[4″-(pentyloxy)[1,1′:4′,1″-terphenyl]-4-yl]carbonyl]-L-ornithine]echinocandin B] ({pTerphenylCO(4''-OnC5H11)}-[Orn(4R-OH,5R-OH)][ξThr(3R)][Hyp][hTyr(3S-OH,4S-OH)]T[Pro(3S-OH,4S-Me)]; lactam 1-C): the solubility in ethanol entry (ethanol) was “slightly soluble”. Also, the solubility in water entry (water) is reported as “practically insoluble”. For the same molecule, the “inhibition of glucan synthase” value in the data set on glucan synthase is “inhibits”. Further, the in vitro activity result in the data set with Candida albicans [1] is “active”. Also, in the data set on C. glabrata, the in vitro activity result is on record as “active”. Moreover, in the data set with C. parapsilosis, the in vitro activity entry was “active”. In the data set with C. tropicalis, the in vitro activity result is on record as “active”. Moreover, in the data set on Candida albicans [2], the “efficacy as prolonged survival and reduction in mycological burden” value is reported as “effective”. Moreover, the “efficacy as prolonged survival and reduction in mycological burden” value in the data set on Candida albicans [3] is given as “effective”. The mycological burden entry in data set [4] was “reduces the mycological burden”. Further, in [5], the clearance result was “about 1 L/h”; the distribution half-life is 0.5 to 1 h; the “intersubject variability of systemic exposure (coefficient of variation)” value was under 25%; the “systemic exposures, dose dependence” value was “dose proportional”. In [5], the terminal elimination half-life is 40 to 50 h and the volume of distribution is 30 to 50 L. The “estimated plasma accumulation factor at steady state” value in [5] (after loading dose twice the daily maintenance dose) was “approximately 2”. For the same molecule, in the data set with human plasma proteins, the “bound to human plasma proteins” value is given as over 99%. In addition, the “substrate, inducer or inhibitor of CYP450 isoenzymes” value in data set [6] was “not a clinically relevant substrate, inducer, or inhibitor”. In the data set with Candida (patients with candidemia and/or other forms of invasive candidiasis), the clinical effectiveness entry was “effectiveness”. Moreover, in the data set with Candida (patients with esophageal candidiasis), the clinical effectiveness entry is “effectiveness”.
